Data on 19 molecules can be found in patent US6197225A, “Chromene compound” (Tokuyama Corporation, priority 1997, dated 2001).

A value given as a limit tells only on which side of the number the result lay.

Data set [1] in a line: Photochromic properties of cast polymer (2 mm thick) under xenon lamp irradiation for 120 seconds. It counts as physicochemical. The procedure: 0.04% by weight of the chromene compound obtained in Example 1 was added to 70 parts of 4G, 15 parts of 3G, 10 parts of GMA, 5 parts of HEMA and 1 part of perbutyl ND, and was mixed together to a sufficient degree. The mixture solution was poured into a mold constituted by a glass plate and a gasket of an ethylene/vinyl acetate copolymer, and was cast-polymerized. By using an air furnace, the polymerization was conducted in a manner that the temperature was gradually raised from 30° C. to 90° C. over a period of 18 hours, and was held at 90° C. for 2 hours. After the polymerization, the polymer was taken out from the glass mold.
By using a xenon lamp, L-2480 (300 W) SHL-100, manufactured by Hamamatsu Photonics Co., the obtained polymer (2 mm thick) was irradiated with a beam of an intensity of 365 nm=2.4 mW/cm^2 and 245 nm=24 μW/cm^2 on the surface of the polymer for 120 seconds through an aero-mass filter (manufactured by Corning Co.) at 20° C.±1° C. to develop color and to measure the photochromic properties which were expressed in the following manner.
1 Maximum absorption wavelength (λmax): λmax of the polymer after it has developed color was found by using a spectrophotometer (instantaneous multi-channel photo-detector, MCPD1000) manufactured by Otsuka Denshi Kogyo Co.
2 Initial color ( ε(0)): Absorbency of the polymer in a non-irradiated state at a wavelength same as the maximum absorption wavelength of when it is irradiated with light.
3 Color density (-)=ε(120)-ε(0). ε(120): Absorbency of the polymer at a maximum absorption wavelength after it was irradiated for 120 seconds under the above-mentioned conditions.
4 Color-developing sensitivity (-/min.)=Saturated color density/xenon irradiation time.
Rate of increase in the color density per a unit time until the color density is saturated.
5 Color fading rate [t1/2 (min.)]=time required until the absorbency of the polymer drops down to one-half of [ε(120)-ε(0)] after irradiated for 120 seconds.
(§1) Photochromic polymers were prepared in the same manner as in Example 42 but using the chromene compounds obtained in Examples 2 to 41, and their maximum absorption wavelengths, color densities, fading rates, changes in the coloring degrees and durabilitys were measured.
(§2) For the purpose of comparison, furthermore, the compounds represented by the following formulas (a), (b), (c), (d), (e) and (f) were measured for their maximum absorption wavelengths, color densities, fading rates, changes in the coloring degrees and durabilitys.
(§3) The procedure was carried out in the same manner as in Example 42 but using 100 parts of AC1 and 133 parts of BC1, the sum of the amounts of AC1 and BC1 being 0.04% by weight. The obtained photochromic polymer was measured for its maximum absorption wavelength, initial color, color density, color-developing sensitivity, fading rate, durability and change in the coloring degree.
(§4) The procedure was carried out in the same manner as in Example 83 but using the known chromene compounds shown in Table 6 instead of the chromene compound used in Example 83. […]

A short description of data set [2]: Aging promotion testing: sunlight 30 min / fading one hour cycles, 10 days (durability, coloring degree). It counts as physicochemical. The procedure: In order to promote the aging, furthermore, the following testing was conducted. That is, the obtained photochromic polymer was irradiated with sunlight for 30 minutes to develop color, and its color was permitted to fade for one hour in the light of a fluorescent lamp. This cycle was repeated three times a day for a total of 10 days.
The photochromic properties before and after aged were evaluated by evaluating the color densities before and after aged. The initial color density (T0) and the color density (T30) ten days after the aging promotion testing were measured, and the durability was expressed as described below.
Furthermore, the coloring degrees of before developing color were measured before and after aged by using a color difference meter (SM-4) manufactured by Suga Shikenki Co.
7 Coloring degree before being aged=YI(0).
8 Change in the coloring degree (ΔYI)=YI(10)-YI(0)
YI(10): coloring degree after aged
as §1, §2, §3, §4
The obtained polymer (2 mm thick) was caused to develop color outdoors, and tones of the developed color were observed by eyes 30 seconds and 15 minutes after it was brought to the outdoors, and uniformity in the step of developing color was evaluated. […] Furthermore, the aging promoting testing was conducted in the same manner as in Example 42 to find a coloring degree (YI(0)) before aged and a change in the coloring degree (ΔY).

The mark [3] stands for this setting: single chromene compound 0.04% by weight in polymer, 20° C., Table 5.
[4] abbreviates: single chromene compound 0.04% by weight in polymer, 120 seconds, 20° C., Table 5.
[5] abbreviates: YI(10)-YI(0), single chromene compound in polymer, 10 days aging, Table 5.
[6] abbreviates: single chromene compound in polymer, 10 days aging, Table 5.
Setting [7] is: chromene composition, or other chromene C1-C4, 10 days aging, Table 6.

On to `CC(C)(C)c1cc2ccccc2c2c1C=CC1(O2)C2(Cl)CCCC1(Cl)CCC2` (stereo not shown) [Compound 22], for which, in data set [1] (setting [3]), the “Fading rate t1/2” value came out at 1.4 min and the “Maximum absorption wavelength λmax” value is 444 nm. Moreover, the “Color density ε(120)-ε(0)” value in data set [1] (setting [4]) is given as 0.5. For the same molecule, the “Change in the coloring degree ΔYI” value in data set [2] (setting [5]) was 3.0. Further, in data set [2] (setting [6]), the “Light resistance (durability)” value turned out to be 80%.
With `COc1ccc(C2(c3ccc(OC)c(F)c3)C=Cc3c(C(C)C)cc4ccccc4c3O2)cc1F` [Compound 14], in data set [1] (setting [3]), the “Fading rate t1/2” value is on record as 4.3 min and the “Maximum absorption wavelength λmax” value came out at 492 nm. For the same molecule, in data set [1] (setting [4]), the “Color density ε(120)-ε(0)” value came to 0.8. The “Change in the coloring degree ΔYI” value in data set [2] (setting [5]) is given as 1.3. In addition, the “Light resistance (durability)” value in data set [2] (setting [6]) worked out at 99%.
Take `CCCc1cc2c(CC)cc(OCC)cc2c2c1C=CC(c1ccc(OC)cc1)(c1cccs1)O2` (stereo not shown) [Compound 40]: in data set [1] (setting [3]), the “Fading rate t1/2” value worked out at 5.2 min and the “Maximum absorption wavelength λmax” value turned out to be 524 nm. In data set [1] (setting [4]), the “Color density ε(120)-ε(0)” value was found to be 0.9. Moreover, the “Change in the coloring degree ΔYI” value in data set [2] (setting [5]) turned out to be 2.7. In data set [2] (setting [6]), the “Light resistance (durability)” value stood at 96%.
In the case of `CC(C)(C)c1cc2ccccc2c2c1C=CC(c1ccccc1)(c1ccccc1)O2` [Compound 1], in data set [1] (setting [3]), the “Fading rate t1/2” value was 3.6 min and the “Maximum absorption wavelength λmax” value was 462 nm. Besides, the “Color density ε(120)-ε(0)” value in data set [1] (setting [4]) is on record as 0.7. Besides, in data set [2] (setting [5]), the “Change in the coloring degree ΔYI” value is given as 0.2. Further, in data set [2] (setting [6]), the “Light resistance (durability)” value came out at 99%.
On to `COc1ccc(C2(c3cccs3)C=Cc3c(C)cc4ccccc4c3O2)cc1` (stereo not shown) [Compound 32], for which, in data set [1] (setting [3]), the “Fading rate t1/2” value is 6.5 min and the “Maximum absorption wavelength λmax” value was determined as 512 nm. For the same molecule, in data set [1] (setting [4]), the “Color density ε(120)-ε(0)” value was 1.0. Also, in data set [2] (setting [5]), the “Change in the coloring degree ΔYI” value is on record as 2.7. Moreover, the “Light resistance (durability)” value in data set [2] (setting [6]) is recorded as 96%.
Regarding `C1=CC(c2ccccc2)(c2ccccc2)Oc2ccc3ccccc3c21` [Compound C4, 3,3-Diphenyl-3H-benzo(f)chromene, reference compound], the λ max in data set [1] (chromene composition, or other chromene C1-C4, 0.04% by weight in polymer, Table 6) amounted to 432 nm. For the same molecule, in data set [1] (chromene composition, or other chromene C1-C4, 120 seconds, Table 6), the “Color density ε(120)-ε(0)” value is 0.5. Further, in data set [1] (chromene composition, or other chromene C1-C4, non-irradiated, Table 6), the “Initial color ε(0)” value is reported as 0.01. In data set [1] (chromene composition, or other chromene C1-C4, Table 6), the “Fading rate t1/2” value was 1.0 min. Moreover, in data set [1] (saturated color density/xenon irradiation time, Table 6), the Color-developing sensitivity is recorded as 0.2 -/min. Further, in data set [2] (setting [7]), the “Change in the coloring degree ΔYI” value came to 5.0 and the Durability stood at 95%.
In the case of `COc1ccc(C2(c3ccc(OC)c(F)c3)C=Cc3c(C)cc4ccccc4c3O2)cc1` (stereo not shown) [Compound 34], in data set [1] (setting [3]), the “Fading rate t1/2” value is 6.5 min and the “Maximum absorption wavelength λmax” value is 502 nm. Further, in data set [1] (setting [4]), the “Color density ε(120)-ε(0)” value was 1.1. In addition, in data set [2] (setting [5]), the “Change in the coloring degree ΔYI” value worked out at 2.4. In data set [2] (setting [6]), the “Light resistance (durability)” value is 97%.
For `COc1ccc(C2(c3ccc(OC)cc3)C=Cc3c(C)cc4cc(-c5ccccc5)ccc4c3O2)cc1` [Compound 37], in data set [1] (setting [3]), the “Fading rate t1/2” value came out at 7.2 min and the “Maximum absorption wavelength λmax” value is on record as 512 nm. For the same molecule, the “Color density ε(120)-ε(0)” value in data set [1] (setting [4]) is 1.3. The “Change in the coloring degree ΔYI” value in data set [2] (setting [5]) came out at 2.5. Besides, the “Light resistance (durability)” value in data set [2] (setting [6]) amounted to 97%.
The like results for `CC(C)c1cc2ccccc2c2c1C=CC(c1ccccc1)(c1ccc3ccccc3c1)O2` (stereo not shown) [Compound 7] were, in that order, 3.5 min, 468 nm, 0.8, 1.7 and 96%.
On to `CCC(C)(CC)c1cc2ccccc2c2c1C=CC(c1ccc(OC)c(F)c1)(c1ccc(OC)c(F)c1)O2` [Compound 5], for which, in data set [1] (setting [3]), the “Fading rate t1/2” value is 2.2 min and the “Maximum absorption wavelength λmax” value was 465 nm. The “Color density ε(120)-ε(0)” value in data set [1] (setting [4]) is recorded as 0.6. Further, the “Change in the coloring degree ΔYI” value in data set [2] (setting [5]) worked out at 1.5. Besides, the “Light resistance (durability)” value in data set [2] (setting [6]) is 99%.
Regarding `Cc1cc2ccccc2c2c1C=CC(c1ccccc1)(c1ccccc1)O2` [c, reference compound], in data set [1] (setting [3]), the “Fading rate t1/2” value was 20 min and the “Maximum absorption wavelength λmax” value amounted to 484 nm. For the same molecule, the “Color density ε(120)-ε(0)” value in data set [1] (setting [4]) is 1.3. In addition, in data set [2] (setting [5]), the “Change in the coloring degree ΔYI” value turned out to be 2.4. Also, in data set [2] (setting [6]), the “Light resistance (durability)” value is given as 96%.
As for `CCCCc1cc2cccc(Br)c2c2c1C=CC(c1ccc(OC)c(F)c1)(c1ccc(OC)c(F)c1)O2` [Compound 38], in data set [1] (setting [3]), the “Fading rate t1/2” value worked out at 4.8 min and the “Maximum absorption wavelength λmax” value was 482 nm. The “Color density ε(120)-ε(0)” value in data set [1] (setting [4]) is recorded as 0.8. For the same molecule, in data set [2] (setting [5]), the “Change in the coloring degree ΔYI” value is on record as 2.8. Further, in data set [2] (setting [6]), the “Light resistance (durability)” value is listed as 96%.
Taken in the same sequence, the figures for `CCCc1cc2ccccc2c2c1C=CC(c1ccc(OC)cc1)(c1ccc(OC)cc1)O2` [Compound 35] were 4.5 min, 498 nm, 0.9, 2.3 and 98%.
`CCC(C)c1cc2ccccc2c2c1C=CC1(O2)C2CCCC1CCC2` (stereo not shown) [Compound 23]: in data set [1] (setting [3]), the “Fading rate t1/2” value is 1.0 min and the “Maximum absorption wavelength λmax” value came to 450 nm. In addition, in data set [1] (setting [4]), the “Color density ε(120)-ε(0)” value was 0.5. Further, in data set [2] (setting [5]), the “Change in the coloring degree ΔYI” value is reported as 2.0. For the same molecule, in data set [2] (setting [6]), the “Light resistance (durability)” value stood at 92%.
Taken in the same sequence, the figures for `CC(C)c1cc2cc(O)ccc2c2c1C=CC(c1cccs1)(c1cccs1)O2` [Compound 9] were 2.2 min, 500 nm, 0.6, 2.2 and 94%.
On to `CCc1cc2ccccc2c2c1C=CC(c1ccc(OC)cc1)(c1ccc(OC)cc1)O2` [Compound 28], for which, in data set [1] (setting [3]), the “Fading rate t1/2” value was 5.5 min and the “Maximum absorption wavelength λmax” value amounted to 502 nm. The “Color density ε(120)-ε(0)” value in data set [1] (setting [4]) came out at 1.0. Further, in data set [2] (setting [5]), the “Change in the coloring degree ΔYI” value was determined as 2.5. For the same molecule, the “Light resistance (durability)” value in data set [2] (setting [6]) amounted to 96%.
In the case of `COc1ccc(C2(c3ccco3)C=Cc3c(C)cc4c(F)ccc(C)c4c3O2)cc1` (stereo not shown) [Compound 41], in data set [1] (setting [3]), the “Fading rate t1/2” value is given as 6.3 min and the “Maximum absorption wavelength λmax” value was determined as 510 nm. Also, in data set [1] (setting [4]), the “Color density ε(120)-ε(0)” value amounted to 1.0. Moreover, the “Change in the coloring degree ΔYI” value in data set [2] (setting [5]) turned out to be 3.2. Moreover, the “Light resistance (durability)” value in data set [2] (setting [6]) was determined as 95%.
On to `COc1ccc(C2(c3ccc(OC)cc3)C=Cc3ccc4ccccc4c3O2)cc1` [a, reference compound], for which, in data set [1] (setting [3]), the “Fading rate t1/2” value was greater than 30 min and the “Maximum absorption wavelength λmax” value worked out at 492 nm. In data set [1] (setting [4]), the “Color density ε(120)-ε(0)” value came to 1.3. In data set [2] (setting [5]), the “Change in the coloring degree ΔYI” value is given as 2.5. Further, the “Light resistance (durability)” value in data set [2] (setting [6]) stood at 97%.
Taken in the same sequence, the figures for `CCC(C)(C)c1cc2ccccc2c2c1C=CC(c1ccc(OC)cc1)(c1ccco1)O2` (stereo not shown) [Compound 3] were 3.1 min, 488 nm, 1.1, 2.0 and 95%.
